Results from patent US9399192B2, “Carbon dioxide absorber and carbon dioxide separation/recovery method using the absorber” (ASAHI KASEI KABUSHIKI KAISHA, priority 2011, dated 2016).
Read-outs that look alike come from different tables or passages of the source.

Experiments:
[1] = Evaluation of reactivity of aqueous amine solutions with carbon dioxide; type: physicochemical; conditions: for Absorbed amount at 30° C. (moles CO2/moles N) / Absorbed amount at 90° C. (moles CO2/moles N): aqueous amine 1.81 mol/L (monoamine) or 0.91 mol/L (diamine), CO2 300 mL/min 15 minutes; for CO2 desorption performance (moles CO2/moles N): difference between absorbed amount at 30° C. and at 90° C.
Description: Amine compounds were mixed with water to prepare aqueous amine solutions. At this time, the concentration of monoamine compounds having one amino group was adjusted to 1.81 mol/L, while the concentration of diamine compounds having two amino groups was adjusted to 0.91 mol/L. Carbon dioxide gas was blown into 25 mL aliquots of each aqueous amine solution for 15 minutes at 300 mL/min to allow the amine compound to react with the carbon dioxide. The reactions were carried out at temperatures of 30° C. and 90° C., and the reacted amount was calculated from element ratios of C and N before and after the reaction as measured with the Model TOC-VCP and Model TNM-1 Total Organic Carbon Analyzers (Shimadzu Corp.).
The absorbed amounts are represented by the number of moles of carbon dioxide reacting with respect to 1 mole of amino group, or in other words, moles CO2/moles N.
(§1) Table 7 indicates a comparison of performance when used as an amine compound for a carbon dioxide absorber. Those parameters evaluated as indicators of performance consisted of absorbed amount at 30° C., absorbed amount at 90° C. and heat of reaction. Furthermore, the difference between the absorbed amount at 30° C. and the absorbed amount at 90° C. was taken to represent carbon dioxide desorption performance. Values for heat of reaction are shown in Table 7 after converting to heat of reaction (kJ/mol) per 1 mole of reacted carbon dioxide using a calibration curve obtained when the reacted amount of the amino groups of each amine compound and carbon dioxide reached 0.10 mol CO2/mol N.

[2] = Evaluation of heat of reaction of aqueous amine solutions (C-80 reaction calorimeter, FIG. 9C); type: physicochemical; conditions: 30° C., per 1 mole of reacted CO2 at reacted amount 0.10 mol CO2/mol N
Description: * Evaluation of Heat of Reaction Heat of reaction was measured using the apparatus shown in FIG. 9C with the Model C-80 Reaction calorimeter (Setaram Inc.) 936. A gas circulation normal pressure type cell (stainless steel 31/1415) was used for the cell, and the gas inlet port and outlet port were connected as shown in FIG. 9C. 4 g aliquots of each aqueous amine compound solution were placed in the cell after adjusting to the same concentrations as those used in the aforementioned evaluation of reactivity ([…] in the case of monoamine compounds and […] in the case of diamine compounds) and the cell was then placed in the C-80 Reaction calorimeter. The cell temperature was adjusted to 30° C. and allowed to stabilize. 50 mL of carbon dioxide were injected into a gas syringe 930 from carbon dioxide supplied from a carbon dioxide cylinder 929 by closing a valve 932 followed by opening the valve 932. The reacted amount was then measured based on the change in internal pressure measured with a pressure gauge 933 while measuring the amount of heat generated with the C-80 Reaction calorimeter. The amount of heat generated and reacted amount were calculated in advance using a calibration curve of heat of compression and internal pressure determined in the absence of a sample.
as §1

[3] = type: physicochemical
Description: Thus, Compound A is extremely useful since it is able to reduce volatilization loss when contacting a gas. In addition, the weak basicity per amino group is attributable to the diamine structure. […]. Thus, Compound A is extremely useful since it allows a wide range of materials to be selected for use in the reactor.

[4] = pH 0.4
physchem = conditions: aqueous solution
[5] = pKb of amine compounds / pKa of weakly acidic compounds calculated from pH of aqueous solution; conditions: amine compound, aqueous solution at 30° C., calculated from pH of 0.4 M aqueous solution

SMILES	Absorbed amount at 30° C. (moles CO2/moles N) [1] [moles CO2/moles N]	Absorbed amount at 90° C. (moles CO2/moles N) [1] [moles CO2/moles N]	CO2 desorption performance (moles CO2/moles N) [1] [moles CO2/moles N]	Heat of reaction [2] [kcal/mol]	pKb [5]	also measured
OCCNCC(O)CNCCO [BHEP, 1,3-bis(2-hydroxyethylamino)propan-2-ol]	0.516	0.214	0.302	16.1	–	vapor pressure [3]: 0.04 mPa; pKb [4]: 6.3
CC(O)CNCC(O)CNCC(C)O (centres unmarked) [BHPP, 1,3-bis(2-hydroxypropylamino)propan-2-ol]	0.498	0.213	0.285	16.3	–	–
OB(O)O [Boric acid]	–	–	–	–	–	pKa (physchem): 9.2
NCC(O)CN [DAP, 1,3-diaminopropan-2-ol]	0.601	0.409	0.192	20.9	–	–
OCCNCCO [DEA, Diethanolamine]	–	–	–	–	–	pKb [4]: 5.4
CCNCCO [EAE, 2-ethylaminoethanol]	0.631	0.279	0.352	20.8	4.4	–
NC(CO)CO [Example 2A13PD, 2-amino-1,3-propanediol]	–	–	–	–	5.6	–
CC(O)CNCC(O)CNCCO (centres unmarked) [HEHPP, 1-(2-hydroxyethylamino)-3-(2-hydroxypropylamino)propan-2-ol]	0.506	0.213	0.293	16.1	–	–
CC(C)NCCO [IPAE, 2-isopropylaminoethanol]	–	–	–	–	4.1	–
NCCO [MEA, Monoethanolamine]	0.614	0.400	0.214	21.6	–	pKb [4]: 4.7
C1CNCCN1 [Pz, piperazine]	–	–	–	–	4.8	–
CCOB(OCC)OCC [TEB, Triethylborate]	–	–	–	–	–	pKa (physchem): 8.1
COB(OC)OC [TMB, Trimethylborate]	–	–	–	–	–	pKa (physchem): 8.7
